The record followed here is US20090197929A1, “Azolylmethyloxiranes, Their Use for Controlling Phytopathogenic Fungi and Agents Containing Said Compounds” (BASF SE, priority 2006, published 2009).

One experiment concerns Puccinia recondita. The experiment can be described thus: Protective activity against Puccinia recondita on wheat (brown rust of wheat) (Puccrt P1). The conditions noted are these: 250 ppm active compound, potted wheat seedlings sprayed to runoff, inoculated next day; untreated plants 90% infected. Format: in vivo. On the procedure: The active compounds were prepared separately or jointly as a stock solution comprising 25 mg of active compound which was made up to 10 ml using a mixture of acetone and/or DMSO and the emulsifier Wettol EM 31 (wetting agent having emulsifying and dispersing action based on ethoxylated alkylphenols) in a volume ratio of solvent/emulsifier of 99:1. The mixture was then made up to 100 ml with water. This stock solution was diluted with the solvent/emulsifier/water mixture described to give the concentration of active compound stated below. Leaves of potted wheat seedlings were sprayed to runoff point with an aqueous suspension having the active compound concentration stated below. The next day, the treated plants were inoculated with a spore suspension of brown rust of wheat (Puccinia recondita). The plants were then placed in a chamber with high atmospheric humidity (90 to 95%) at 20 to 22° C. for 24 hours. During this time, the spores germinated and the germ tubes penetrated into the leaf tissue. The next day, the test plants were returned to the greenhouse and cultivated at temperatures between 20 and 22° C. and at 65 to 70% relative atmospheric humidity for a further 7 days. The extent of the rust fungus development on the leaves was then determined visually.

Another experiment concerns Pyrenophora teres. The experiment can be described thus: Activity against net blotch of barley caused by Pyrenophora teres at 1 day protective application (Pyrnte P1). Format: in vivo, Pyrenophora [syn. Drechslera] teres on barley. The conditions noted are these: 250 ppm active compound, potted barley seedlings sprayed to runoff, inoculated after 24 hours, assessed after 6 days; untreated plants 90% infected. On the procedure:
The active compounds were prepared separately or jointly as a stock solution comprising 25 mg of active compound which was made up to 10 ml using a mixture of acetone and/or DMSO and the emulsifier Wettol EM 31 (wetting agent having emulsifying and dispersing action based on ethoxylated alkylphenols) in a volume ratio of solvent/emulsifier of 99:1. The mixture was then made up to 100 ml with water. This stock solution was diluted with the solvent/emulsifier/water mixture described to give the concentration of active compound stated below. Leaves of potted barley seedlings were sprayed to runoff point with an aqueous suspension having the active compound concentration stated below. 24 hours after the spray coat had dried on, the test plants were inoculated with an aqueous spore suspension of Pyrenophora [syn. Drechslera] teres, the net blotch pathogen. The test plants were then placed in a greenhouse at temperatures between 20 and 24° C. and at 95 to 100% relative atmospheric humidity. After 6 days, the extent of the development of the disease was determined visually in % infection of the entire leaf area.

For the molecule `Fc1ccc([C@@]2(Cn3cncn3)O[C@@H]2c2cc(Cl)sc2Cl)cc1` (racemic) [1-{[(2SR,3RS)-3-(2,5-dichlorothiophen-3-yl)-2-(4-fluorophenyl)oxiran-2-yl]methyl}-1H-1,2,4-triazole], the “infection (extent of rust fungus development on the leaves, determined visually)” value with Puccinia recondita is 0%. In addition, in the experiment with Pyrenophora teres, the “infection (% infection of the entire leaf area, determined visually)” value was 15%.
